The target of one experiment is T1, human μ opiate receptor (Homo sapiens, UniProt P35372).
T1 construct: purchased PerkinElmer Life Sciences, Zaventem, Belgium RB-HOM; host or cells: CHO-K1 cells (membrane preparation)
Description: Affinity for the human μ opiate receptor ([3H]-naloxone displacement, CHO-K1 receptor membrane preparation, SPA). The format is binding. As to conditions: 1.5 h, Table 3, to be read in the same way as Table 1; test concentration 1 μM; read-out: μ. Put shortly: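 At 1 μmol/l, compounds were scored for % displacement of 1 nmol/l [3H]-naloxone from CHO-K1-expressed human μ opiate receptor in a homogeneous SPA format (90 min, room temperature).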

The target in experiment [1] is T2, human bradykinin 1 receptor (B1R) (Homo sapiens, UniProt P46663).
T2 construct: expressed in transfected cells; host or cells: CHO K1 cells
T2 sequence (P46663 1-353): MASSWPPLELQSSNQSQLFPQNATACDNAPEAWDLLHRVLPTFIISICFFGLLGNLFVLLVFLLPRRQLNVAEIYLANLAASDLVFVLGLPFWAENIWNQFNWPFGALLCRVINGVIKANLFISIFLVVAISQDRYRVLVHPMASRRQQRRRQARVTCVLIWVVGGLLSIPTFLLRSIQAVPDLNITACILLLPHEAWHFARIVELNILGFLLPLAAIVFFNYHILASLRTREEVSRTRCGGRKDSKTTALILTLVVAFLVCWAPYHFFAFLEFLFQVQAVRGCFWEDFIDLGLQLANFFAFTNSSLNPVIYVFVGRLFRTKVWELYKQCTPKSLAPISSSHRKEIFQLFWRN
Briefly: Functional investigation on the human bradykinin 1 receptor (B1R), Ca2+ FLIPR assay in CHO K1 hB1R cells. The format is cell-based. As to conditions: test substance 10 μM; for inhibition at 10 µM: CHO-K1, B1R antagonism human, read-out: B1R Ant. h [10 μM] % Inhibition. Put shortly:
(§1)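 Peak Ca2+-dependent fluorescence in B1R-transfected CHO K1 cells measures antagonism of an EC80 agonist challenge given 10-20 min after compound. Agonist is Lys-Des-Arg9-bradykinin for human, Des-Arg9-bradykinin for rat receptor.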

In experiment [2] the target is T3, bradykinin 1 receptor (B1R) of the rat (Rattus norvegicus, UniProt P97583).
T3 construct: expressed in transfected cells; host or cells: CHO K1 cells
T3 sequence (P97583 1-337): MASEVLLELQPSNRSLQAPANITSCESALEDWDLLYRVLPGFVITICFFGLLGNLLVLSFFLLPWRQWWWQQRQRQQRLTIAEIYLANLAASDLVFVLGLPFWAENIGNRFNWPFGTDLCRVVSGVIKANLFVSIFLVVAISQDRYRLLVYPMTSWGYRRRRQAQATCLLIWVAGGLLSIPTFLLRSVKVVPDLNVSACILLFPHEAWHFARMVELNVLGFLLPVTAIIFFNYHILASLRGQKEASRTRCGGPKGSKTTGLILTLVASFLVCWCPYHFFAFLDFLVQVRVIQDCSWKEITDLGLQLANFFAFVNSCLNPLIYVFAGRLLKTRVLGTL
Description: Functional investigation on the rat bradykinin 1 receptor (B1R), Ca2+ FLIPR assay in CHO K1 rB1R cells. The format is cell-based. The following applies: test substance 10 μM; for inhibition at 10 µM: CHO-K1, B1R antagonism rat, read-out: B1R Ant. r [10 μM] % Inhibition. Summed up: as §1

The mark [3] stands for this setting: % inhibition compared with the maximum achievable inhibition.

Read-outs that look alike come from different tables or passages of the source.

T1 sequence (P35372 whole entry): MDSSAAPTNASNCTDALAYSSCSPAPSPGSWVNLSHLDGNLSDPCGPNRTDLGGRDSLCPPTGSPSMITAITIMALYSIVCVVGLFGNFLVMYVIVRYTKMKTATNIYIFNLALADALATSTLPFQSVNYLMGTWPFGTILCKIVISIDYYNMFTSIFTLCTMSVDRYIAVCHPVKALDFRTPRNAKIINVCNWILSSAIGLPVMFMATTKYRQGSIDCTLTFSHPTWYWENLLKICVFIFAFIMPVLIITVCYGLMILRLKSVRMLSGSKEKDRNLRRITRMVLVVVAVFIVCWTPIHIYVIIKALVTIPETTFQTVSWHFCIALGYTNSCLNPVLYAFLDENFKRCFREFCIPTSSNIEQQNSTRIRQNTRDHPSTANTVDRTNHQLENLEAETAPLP

On to `O=C(COCC1CCCCN1S(=O)(=O)c1c(Cl)cc(Cl)cc1Cl)NCC1CCC(C(CCc2ccccc2)N2CCCC2)CC1` (stereo not drawn) [Example 755, N-((4-(3-phenyl-1-(pyrrolidin-1-yl)propyl)cyclohexyl)methyl)-2-((1-(2,4,6-trichlorophenylsulfonyl)piperidin-2-yl)methoxy)acetamide], for which the inhibition at 1 µM at human μ opiate receptor was 62%. Also, the inhibition at 10 µM amounted to 103% in experiment [1] (Ca2+ FLIPR, CHO K1 hB1R cells) and 102% in experiment [2] (Ca2+ FLIPR, CHO K1 rB1R cells).

As for `COc1cc(C)c(S(=O)(=O)N(C)CCOCC(=O)N2CCC(C(Cc3ccccc3)N3CCN(C)CC3)CC2)c(C)c1` (stereo not drawn) [Example 803, 4-methoxy-N,2,6-trimethyl-N-(2-(2-(4-(1-(4-methylpiperazin-1-yl)-2-phenylethyl)piperidin-1-yl)-2-oxoethoxy)ethyl)benzenesulfonamide], at human μ opiate receptor, the inhibition at 1 µM is 13%. Besides, the inhibition at 10 µM amounted to 108% in experiment [1] (setting [3]) and 99% in experiment [2] (setting [3]).

For the compound `O=C(COCC1CCCCN1S(=O)(=O)c1c(Cl)cc(Cl)cc1Cl)NC1CCC(C(CCc2ccccc2)N2CCCCC2)CC1` (stereo not drawn) [Example 738, N-(4-(3-phenyl-1-(piperidin-1-yl)propyl)cyclohexyl)-2-((1-(2,4,6-trichlorophenylsulfonyl)piperidin-2-yl)methoxy)acetamide], at human μ opiate receptor, the inhibition at 1 µM came out at 77%. The inhibition at 10 µM was 75% in experiment [1] (Ca2+ FLIPR, CHO K1 hB1R cells) and 62% in experiment [2] (Ca2+ FLIPR, CHO K1 rB1R cells).

Regarding `COc1cc(C)c(S(=O)(=O)N2CCCCC2COCC(=O)NC2CCC(C(c3ccccc3)N3CCCC3)CC2)c(C)c1` (stereo not drawn) [Example 652, 2-((1-(4-methoxy-2,6-dimethylphenylsulfonyl)piperidin-2-yl)methoxy)-N-(4-(phenyl(pyrrolidin-1-yl)methyl)cyclohexyl)acetamide], the inhibition at 1 µM at human μ opiate receptor came to 70%. The inhibition at 10 µM in experiment [1] (Ca2+ FLIPR, CHO K1 hB1R cells) came to 101%; in experiment [2] (Ca2+ FLIPR, CHO K1 rB1R cells), 105%.

As for `CN1CCN(C(c2ccccc2)C2CCC(NC(=O)COCCN(C)S(=O)(=O)c3ccc(Cl)cc3Cl)CC2)CC1` (stereo not drawn) [Example 704, 2-(2-(2,4-dichloro-N-methylphenylsulfonamido)ethoxy)-N-(4-((4-methylpiperazin-1-yl)(phenyl)methyl)cyclohexyl)acetamide], the inhibition at 1 µM on human μ opiate receptor was 27%. Further, the inhibition at 10 µM in experiment [1] (Ca2+ FLIPR, CHO K1 hB1R cells) was 75%; in experiment [2] (Ca2+ FLIPR, CHO K1 rB1R cells), 39%.

`COc1cc(C)c(S(=O)(=O)N2CCC(OCC(=O)NC3CCC(C(CCc4ccccc4)N4CCCCC4)CC3)C2)c(C)c1` (stereo not drawn) [Example 669, 2-(1-(4-methoxy-2,6-dimethylphenylsulfonyl)pyrrolidin-3-yloxy)-N-(4-(3-phenyl-1-(piperidin-1-yl)propyl)cyclohexyl)acetamide]: the inhibition at 1 µM on human μ opiate receptor was found to be 20%. Moreover, the inhibition at 10 µM in experiment [1] (Ca2+ FLIPR, CHO K1 hB1R cells) came to 103%; in experiment [2] (Ca2+ FLIPR, CHO K1 rB1R cells), 95%.

Take `CN(CCOCC(=O)NCC1CCC(C(c2ccccc2)N2CCCC2)CC1)S(=O)(=O)c1c(Cl)cc(C(F)(F)F)cc1Cl` (stereo not drawn) [Example 646, 2-(2-(2,6-dichloro-N-methyl-4-(trifluoromethyl)phenylsulfonamido)ethoxy)-N-((4-(phenyl(pyrrolidin-1-yl)methyl)cyclohexyl)methyl)acetamide]: the inhibition at 1 µM at human μ opiate receptor came to 49%. Further, the inhibition at 10 µM in experiment [1] (Ca2+ FLIPR, CHO K1 hB1R cells) came to 60%; in experiment [2] (Ca2+ FLIPR, CHO K1 rB1R cells) it was 15%.

Regarding `CN(CCOCC(=O)NC1CCC(C(c2ccccc2)N2CCCC2)CC1)S(=O)(=O)c1c(Cl)cc(Cl)cc1Cl` (stereo not drawn) [Example 625, N-(4-(phenyl(pyrrolidin-1-yl)methyl)cyclohexyl)-2-(2-(2,4,6-trichloro-N-methylphenylsulfonamido)ethoxy)acetamide], at human μ opiate receptor, the inhibition at 1 µM amounted to 72%. Moreover, in experiment [1] (B1R antagonism human, Ca2+ FLIPR, CHO K1 hB1R cells), the “B1R Ant. h [10 μM] % Inhibition” value stood at 100%. The “B1R Ant. r [10 μM] % Inhibition” value in experiment [2] (B1R antagonism rat, Ca2+ FLIPR, CHO K1 rB1R cells) is reported as 57%.

For `CN(CCOCC(=O)NCC1CCC(C(CCc2ccccc2)N2CCOCC2)CC1)S(=O)(=O)c1c(Cl)cc(C(F)(F)F)cc1Cl` (stereo not drawn) [Example 728, 2-(2-(2,6-dichloro-N-methyl-4-(trifluoromethyl)phenylsulfonamido)ethoxy)-N-((4-(1-morpholino-3-phenylpropyl)cyclohexyl)methyl)acetamide], the inhibition at 1 µM at human μ opiate receptor was 12%. The inhibition at 10 µM in experiment [1] (Ca2+ FLIPR, CHO K1 hB1R cells) is -9%; in experiment [2] (Ca2+ FLIPR, CHO K1 rB1R cells), 9%.

`CN1CCN(C(CCc2ccccc2)C2CCN(C(=O)COCC3CCc4ccccc4N3S(=O)(=O)c3ccc(Cl)c(Cl)c3)CC2)CC1` (stereo not drawn) [Example 811, 2-((1-(3,4-dichlorophenylsulfonyl)-1,2,3,4-tetrahydroquinolin-2-yl)methoxy)-1-(4-(1-(4-methylpiperazin-1-yl)-3-phenylpropyl)piperidin-1-yl)ethanone]: the inhibition at 1 µM on human μ opiate receptor came to 20%. The inhibition at 10 µM in experiment [1] (setting [3]) worked out at 104%; in experiment [2] (setting [3]) it was 96%.

As for `CN(CCOCC(=O)NCC1CCC(C(CCc2ccccc2)N2CCCC2)CC1)S(=O)(=O)c1ccc(Cl)cc1Cl` (stereo not drawn) [Example 717, 2-(2-(2,4-dichloro-N-methylphenylsulfonamido)ethoxy)-N-((4-(3-phenyl-1-(pyrrolidin-1-yl)propyl)cyclohexyl)methyl)acetamide], the inhibition at 1 µM on human μ opiate receptor is 22%. Also, the inhibition at 10 µM in experiment [1] (Ca2+ FLIPR, CHO K1 hB1R cells) worked out at 100%; in experiment [2] (Ca2+ FLIPR, CHO K1 rB1R cells), 88%.

For `CN(CCOCC(=O)NCC1CCC(C(c2ccccc2)N2CCOCC2)CC1)S(=O)(=O)c1ccc(Cl)cc1Cl` (stereo not drawn) [Example 705, 2-(2-(2,4-dichloro-N-methylphenylsulfonamido)ethoxy)-N-((4-(morpholino(phenyl)methyl)cyclohexyl)methyl)acetamide], the inhibition at 1 µM on human μ opiate receptor is 8%. Further, the inhibition at 10 µM in experiment [1] (Ca2+ FLIPR, CHO K1 hB1R cells) is 49%; in experiment [2] (Ca2+ FLIPR, CHO K1 rB1R cells) it was -9%.

For `CN(CCOCC(=O)NCC1CCC(C(CCc2ccccc2)N2CCOCC2)CC1)S(=O)(=O)c1c(Cl)cccc1Cl` (stereo not drawn) [Example 721, 2-(2-(2,6-dichloro-N-methylphenylsulfonamido)ethoxy)-N-((4-(1-morpholino-3-phenylpropyl)cyclohexyl)methyl)acetamide], the inhibition at 1 µM at human μ opiate receptor worked out at 7%. For the same compound, the inhibition at 10 µM in experiment [1] (Ca2+ FLIPR, CHO K1 hB1R cells) came to 94%; in experiment [2] (Ca2+ FLIPR, CHO K1 rB1R cells), 57%.

On to `COc1cc(C)c(S(=O)(=O)N(C)CCOCC(=O)NCC2CCC(C(c3ccccc3)N3CCCC3)CC2)c(C)c1` (stereo not drawn) [Example 642, 2-(2-(4-methoxy-N,2,6-trimethylphenylsulfonamido)ethoxy)-N-((4-(phenyl(pyrrolidin-1-yl)methyl)cyclohexyl)methyl)acetamide], for which the inhibition at 1 µM at human μ opiate receptor was determined as 54%. Also, the inhibition at 10 µM in experiment [1] (Ca2+ FLIPR, CHO K1 hB1R cells) amounted to 105%; in experiment [2] (Ca2+ FLIPR, CHO K1 rB1R cells), 105%.

In the case of `COc1cc(C)c(S(=O)(=O)N(C)CCOCC(=O)NC2CCC(C(c3ccccc3)N3CCCC3)CC2)c(C)c1` (stereo not drawn) [Example 628, 2-(2-(4-methoxy-N,2,6-trimethylphenylsulfonamido)ethoxy)-N-(4-(phenyl(pyrrolidin-1-yl)methyl)cyclohexyl)acetamide], the inhibition at 1 µM on human μ opiate receptor came out at 36%. In addition, the inhibition at 10 µM in experiment [1] (Ca2+ FLIPR, CHO K1 hB1R cells) is 105%; in experiment [2] (Ca2+ FLIPR, CHO K1 rB1R cells) it was 89%.

As for `COc1cc(C)c(S(=O)(=O)N2CCC(OCC(=O)NCC3CCC(C(c4ccccc4)N4CCOCC4)CC3)C2)c(C)c1` (stereo not drawn) [Example 724, 2-(1-(4-methoxy-2,6-dimethylphenylsulfonyl)pyrrolidin-3-yloxy)-N-((4-(morpholino(phenyl)methyl)cyclohexyl)methyl)acetamide], on human μ opiate receptor, the inhibition at 1 µM was determined as 8%. Moreover, the inhibition at 10 µM in experiment [1] (Ca2+ FLIPR, CHO K1 hB1R cells) was found to be 55%; in experiment [2] (Ca2+ FLIPR, CHO K1 rB1R cells), 50%.

With `COc1cc(C)c(S(=O)(=O)N2CCCC(OCC(=O)NC3CCC(C(c4ccccc4)N4CCOCC4)CC3)C2)c(C)c1` (stereo not drawn) [Example 693, 2-(1-(4-methoxy-2,6-dimethylphenylsulfonyl)piperidin-3-yloxy)-N-(4-(morpholino(phenyl)methyl)cyclohexyl)acetamide], the inhibition at 1 µM on human μ opiate receptor stood at 9%. Further, the inhibition at 10 µM in experiment [1] (Ca2+ FLIPR, CHO K1 hB1R cells) is 26%; in experiment [2] (Ca2+ FLIPR, CHO K1 rB1R cells) it was 50%.

The values above are taken from patent US8106055B2, “Substituted amide compounds” (Gruenenthal GmbH, priority 2007, dated 2012).
